Assay results from patent US20220062240A1, “METHODS OF TREATING CANCER USING A CLK INHIBITOR” (BioSplice Therapeutics, Inc., priority 2018, published 2022).
Read-outs that look alike come from different tables or passages of the source. Values belong to the molecule of their own block, whether it stands above or below them.

What was measured:
[1] = test system: ovarian cancer (4 cell lines); test: CellTiter-Glo Viability Assay, ovarian cancer; assay type: cell-based; conditions: Homo sapiens, inhibition of cancer cell proliferation
[2] = test system: MDA-MB-231-Luc; test: CellTiter-Glo Viability Assay, breast cancer; assay type: cell-based; conditions: Homo sapiens, 96 h; MDA-MB-231-Luc, breast cancer, four days; read-out: EC50
[3] = test system: MCF7; test: CellTiter-Glo Viability Assay, breast cancer; assay type: cell-based; conditions: Homo sapiens, 96 h; MCF7, breast cancer, four days; read-out: EC50
[4] = test system: CAMA1; test: CellTiter-Glo Viability Assay, breast cancer; assay type: cell-based; conditions: Homo sapiens, CAMA-1, 96 h; CAMA1, breast cancer, four days; read-out: EC50
[5] = test system: DU4475; test: CellTiter-Glo Viability Assay, breast cancer; assay type: cell-based; conditions: Homo sapiens, DU-4475, 96 h; DU4475, breast cancer, four days; read-out: EC50
[6] = test system: BT-549; test: CellTiter-Glo Viability Assay, breast cancer; assay type: cell-based; conditions: Homo sapiens, 96 h; BT-549, breast cancer, four days; read-out: EC50
[7] = test system: ZR-75-1; test: CellTiter-Glo Viability Assay, breast cancer; assay type: cell-based; conditions: Homo sapiens, 96 h; ZR-75-1, breast cancer, four days; read-out: EC50
[8] = test system: T47D; test: CellTiter-Glo Viability Assay, breast cancer; assay type: cell-based; conditions: Homo sapiens, 96 h, breast cancer, four days, read-out: EC50
[9] = test system: HCC1599; test: CellTiter-Glo Viability Assay, breast cancer; assay type: cell-based; conditions: Homo sapiens, 96 h; HCC1599, breast cancer, four days; read-out: EC50
[10] = test system: lung cancer (4 cell lines); test: CellTiter-Glo Viability Assay, lung cancer; assay type: cell-based; conditions: Homo sapiens, inhibition of cancer cell proliferation
[11] = test system: colorectal cancer (6 cell lines); test: CellTiter-Glo Viability Assay, colorectal cancer; assay type: cell-based; conditions: Homo sapiens, inhibition of cancer cell proliferation
[12] = test system: pancreatic cancer (8 cell lines); test: CellTiter-Glo Viability Assay, pancreatic cancer; assay type: cell-based; conditions: Homo sapiens, inhibition of cancer cell proliferation
[13] = test system: prostate cancer (5 cell lines); test: CellTiter-Glo Viability Assay, prostate cancer; assay type: cell-based; conditions: Homo sapiens
[14] = target: T1, CLK2 (Homo sapiens, UniProt P49760); test: CLK2 kinase activity assay (Z-lyte, Ser/Thr 6 peptide); assay type: biochemical; conditions: recombinant CLK2 kinase, ATP 60 μM; read-out: EC50
T1 construct: purchased Thermo Fisher (Life Technologies), Z'-LYTE Kinase Assay Kits
T1 sequence (P49760 whole entry): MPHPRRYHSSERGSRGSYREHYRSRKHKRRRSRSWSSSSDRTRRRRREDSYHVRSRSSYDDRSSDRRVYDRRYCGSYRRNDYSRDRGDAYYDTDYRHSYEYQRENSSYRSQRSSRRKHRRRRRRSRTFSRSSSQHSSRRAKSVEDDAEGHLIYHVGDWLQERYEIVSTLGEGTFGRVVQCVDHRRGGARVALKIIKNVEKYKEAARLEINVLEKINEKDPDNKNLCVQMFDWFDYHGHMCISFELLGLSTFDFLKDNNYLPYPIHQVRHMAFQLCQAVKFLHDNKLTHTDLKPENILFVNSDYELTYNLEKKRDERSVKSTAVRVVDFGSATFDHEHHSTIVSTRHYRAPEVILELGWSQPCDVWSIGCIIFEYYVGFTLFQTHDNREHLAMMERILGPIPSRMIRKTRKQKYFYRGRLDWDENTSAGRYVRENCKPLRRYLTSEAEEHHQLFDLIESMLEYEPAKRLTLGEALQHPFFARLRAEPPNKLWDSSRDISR
Method: All reactions were performed in duplicate.

[15] = test system: all 50 cell lines; test: CellTiter-Glo Viability Assay, average across all cell lines; assay type: cell-based; conditions: Homo sapiens; across all 50 cell lines; read-out: average EC50 for inhibition of cancer cell proliferation
Summary of the method: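 Cells were plated at 300-3,000 per well in their own media, then treated with compound in duplicate, with DMSO wells as controls. After four days at 37° C and 5% CO2, CellTiter-Glo was added, and luminescence was read. EC50s were fitted.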

[16] = test system: liver cancer (3 cell lines); test: CellTiter-Glo Viability Assay, liver cancer; assay type: cell-based; conditions: Homo sapiens, inhibition of cancer cell proliferation
[17] = test system: haematopoietic & lymphoid tumors (13 cell lines); test: CellTiter-Glo Viability Assay, haematopoietic & lymphoid tumors; assay type: cell-based; conditions: Homo sapiens, inhibition of cancer cell proliferation
[18] = PA-1, PA1 cell line, read-out: Ovarian cancer, EC50 (μM) PA1
[19] = TOV112D, TOV-112D cell line, read-out: Ovarian cancer, EC50 (μM) TOV-112D
[20] = OV-90 cell line, read-out: Ovarian cancer, EC50 (μM) OV-90
[21] = OVCAR-3 cell line, read-out: Ovarian cancer, EC50 (μM) OVCAR-3
[22] = A-427, A427 cell line, read-out: Lung cancer, EC50 (μM) A427
[23] = HCC78, HCC-78 cell line, read-out: Lung cancer, EC50 (μM) HCC-78
[24] = NCI-H460 cell line, read-out: Lung cancer, EC50 (μM) NCI-H460
[25] = NCI-H522 cell line, read-out: Lung cancer, EC50 (μM) NCI-H522
[26] = HCT-116, HCT116 cell line, read-out: Colorectal cancer, EC50 (μM) HCT116
[27] = HT-29, HT29 cell line, read-out: Colorectal cancer, EC50 (μM) HT29
[28] = SW-620, SW620 cell line, read-out: Colorectal cancer, EC50 (μM) SW620
[29] = DLD-1 cell line, read-out: Colorectal cancer, EC50 (μM) DLD-1
[30] = SW48 cell line, read-out: Colorectal cancer, EC50 (μM) SW48
[31] = SW480 cell line, read-out: Colorectal cancer, EC50 (μM) SW480
[32] = BXPC-3, BxPC3 cell line, read-out: Pancreatic cancer, EC50 BxPC3
[33] = CAPAN-1, Capan1 cell line, read-out: Pancreatic cancer, EC50 Capan1
[34] = Capan-2, Capan2 cell line, read-out: Pancreatic cancer, EC50 Capan2
[35] = MIA PaCa-2 cell line, read-out: Pancreatic cancer, EC50 MIA PaCa-2
[36] = PANC 05.04 cell line, read-out: Pancreatic cancer, EC50 PANC 05.04
[37] = PANC-1 cell line, read-out: Pancreatic cancer, EC50 PANC-1
[38] = UPAFII cell line, read-out: Pancreatic cancer, EC50 UPAFII
[39] = DU-145, read-out: Prostate cancer EC50 Du-145
[40] = PC-3, PC3 cell line, inhibition of cancer cell proliferation, read-out: Prostate cancer EC50 PC3
[41] = 22Rv1 cell line, inhibition of cancer cell proliferation, read-out: Prostate cancer EC50 22Rv1
[42] = LNCap clone FGC cell line, inhibition of cancer cell proliferation, read-out: Prostate cancer EC50 LNCap clone FGC
[43] = VCaP (Sigma) cell line, inhibition of cancer cell proliferation, read-out: Prostate cancer EC50 VCaP (Sigma)
[44] = SNU-398, SNU398 cell line, read-out: Liver cancer, EC50 SNU398
[45] = HEPG2 cell line, read-out: Liver cancer, EC50 HEPG2
[46] = PLC/PRF/5 cell line, read-out: Liver cancer, EC50 PLC/PRF/5
[47] = DND41, DND-41 cell line, read-out: Haematopoietic & Lymphoid tumors, EC50 (μM) DND-41
[48] = MV4-11, MV-4-11 cell line, read-out: Haematopoietic & Lymphoid tumors, EC50 (μM) MV-4-11
[49] = Rec1, REC-1 cell line, read-out: Haematopoietic & Lymphoid tumors, EC50 (μM) REC-1
[50] = SU-DHL-4, SUDHL4 cell line, read-out: Haematopoietic & Lymphoid tumors, EC50 (μM) SUDHL4
[51] = HL-60 cell line, read-out: Haematopoietic & Lymphoid tumors, EC50 (μM) HL-60
[52] = JM1 cell line, read-out: Haematopoietic & Lymphoid tumors, EC50 (μM) JM1
[53] = JURKAT, Clone E6-1 cell line, read-out: Haematopoietic & Lymphoid tumors, EC50 (μM) JURKAT, Clone E6-1
[54] = JeKo-1 cell line, read-out: Haematopoietic & Lymphoid tumors, EC50 (μM) JeKo-1
[55] = KASUMI-1 cell line, read-out: Haematopoietic & Lymphoid tumors, EC50 (μM) KASUMI-1
[56] = Loucy cell line, read-out: Haematopoietic & Lymphoid tumors, EC50 (μM) Loucy
[57] = MOLT-4 cell line, read-out: Haematopoietic & Lymphoid tumors, EC50 (μM) MOLT-4
[58] = TF-1 cell line, read-out: Haematopoietic & Lymphoid tumors, EC50 (μM) TF-1
[59] = TOLEDO cell line, read-out: Haematopoietic & Lymphoid tumors, EC50 (μM) TOLEDO

EC50 [1, 18]: 0.725 µM
EC50 [1, 19]: 0.277 µM
EC50 [1, 20]: 1.07 µM
EC50 [1, 21]: 0.194 µM
EC50 [2]: 798 nM
EC50 [3]: 3360 nM
EC50 [4]: 640 nM
EC50 [5]: 468 nM
EC50 [6]: 1050 nM
EC50 [7]: 950 nM
EC50 [8]: 1220 nM
EC50 [9]: 673 nM
EC50 [10, 22]: 0.481 µM
EC50 [10, 23]: 1.07 µM
EC50 [10, 24]: 2.05 µM
EC50 [10, 25]: 0.246 µM
EC50 [11, 26]: 0.455 µM
EC50 [11, 27]: 1.41 µM
EC50 [11, 28]: 0.241 µM
EC50 [11, 29]: 1.53 µM
EC50 [11, 30]: 0.16 µM
EC50 [11, 31]: 0.384 µM
EC50 [12, 32]: 2070 nM
EC50 [12, 33]: 810 nM
EC50 [12, 34]: 1190 nM
EC50 [12, 35]: 219 nM
EC50 [12, 36]: 1060 nM
EC50 [12, 37]: 1660 nM
EC50 [12, 38]: 635 nM
EC50 [13, 39]: 941 nM
EC50 [13, 40]: 546 nM
EC50 [13, 41]: 397 nM
EC50 [13, 42]: 1380 nM
EC50 [13, 43]: 1700 nM
EC50 [14]: 2.6 nM
EC50 [16, 44]: 120 nM
EC50 [16, 45]: 654 nM
EC50 [16, 46]: 2550 nM
EC50 [17, 47]: 0.547 µM
EC50 [17, 48]: 0.123 µM
EC50 [17, 49]: 1.77 µM
EC50 [17, 50]: 0.533 µM
EC50 [17, 51]: 1.63 µM
EC50 [17, 52]: 0.167 µM
EC50 [17, 53]: 1.33 µM
EC50 [17, 54]: 0.142 µM
EC50 [17, 55]: 0.547 µM
EC50 [17, 56]: 0.385 µM
EC50 [17, 57]: 0.734 µM
EC50 [17, 58]: 2.39 µM
EC50 [17, 59]: 0.373 µM
SMILES: CN1CCC2(CC1)CN(c1cc(C(=O)Nc3cc4cc(-c5cnn(C)c5CO)ccc4cn3)ccn1)C2 [Compound 76]
EC50 [15]: 922 nM

EC50 [1, 18]: 5.95 µM
EC50 [1, 19]: 1.55 µM
EC50 [1, 20]: > 10 µM
EC50 [1, 21]: 2.54 µM
EC50 [2]: 6790 nM
EC50 [3]: > 10000 nM
EC50 [4]: 7760 nM
EC50 [5]: 1020 nM
EC50 [6]: 3760 nM
EC50 [7]: 6790 nM
EC50 [8]: 633 nM
EC50 [9]: 240 nM
EC50 [10, 22]: 4.12 µM
EC50 [10, 23]: > 10 µM
EC50 [10, 24]: 5.17 µM
EC50 [10, 25]: 1.42 µM
EC50 [11, 26]: 1.88 µM
EC50 [11, 27]: 5.48 µM
EC50 [11, 28]: 1.36 µM
EC50 [11, 29]: 1.35 µM
EC50 [11, 30]: 0.577 µM
EC50 [11, 31]: 3.5 µM
EC50 [12, 32]: 9040 nM
EC50 [12, 33]: > 10000 nM
EC50 [12, 34]: > 10000 nM
EC50 [12, 35]: 2020 nM
EC50 [12, 36]: > 10000 nM
EC50 [12, 37]: > 10000 nM
EC50 [12, 38]: 6880 nM
EC50 [13, 39]: 9090 nM
EC50 [13, 40]: 9340 nM
EC50 [13, 41]: 1060 nM
EC50 [13, 42]: 8650 nM
EC50 [13, 43]: 2020 nM
EC50 [14]: 3.7 nM
EC50 [16, 44]: 2040 nM
EC50 [16, 45]: 3620 nM
EC50 [16, 46]: 9900 nM
EC50 [17, 47]: 4.78 µM
EC50 [17, 48]: 0.273 µM
EC50 [17, 49]: 1.26 µM
EC50 [17, 50]: 2.56 µM
EC50 [17, 51]: 4.59 µM
EC50 [17, 52]: 0.765 µM
EC50 [17, 53]: 3.73 µM
EC50 [17, 54]: 0.706 µM
EC50 [17, 55]: 0.479 µM
EC50 [17, 56]: 1.96 µM
EC50 [17, 57]: 5.56 µM
EC50 [17, 58]: 3.59 µM
EC50 [17, 59]: 0.886 µM
SMILES: CN1CCC(Oc2ccc(NC(=O)c3n[nH]cc3/C=C/c3cccnc3)cn2)CC1 [Compound 93]
EC50 [15]: 4530 nM
